# Key:
# [1] = system: HTTQ94 Tet-on HT-22 cells; assay: Cell death assay, HTTQ94 Tet-on HT-22 cells treated with glutamate; type: cell-based, mouse; conditions: doxycycline 0.5 μg/ml and glutamate 10 mM, 20 h; for effect of inhibitor on HTTQ94-mediated ferroptosis upon glutamate induction: Ferr-1 2 μM, Zileuton 10 μM
# Experimental: (G) Cell death assay in HTTQ94 Tet-on HT-22 cells. Cells were transfected with control siRNA (ctrl) or ALOX5 siRNA, followed by incubation with doxycycline (0.5 μg/ml) and glutamate (10 mM) for 16 h in the presence or absence of Ferr-1 (2 μM). Cell death were calculated from three replicates; Data shown in (A), (C), (E) and (G) are means±SD. P-values were derived from two-tailed unpaired t-test.
# (E) Cell death assay. The HTTQ94 Tet-on HT-22 cells were treated with doxycycline (0.5 μg/ml) and glutamate (10 mM) in the presence or absence of Ferr-1(2 μM) or Zileuton (10 μM) for 20 h. […] Data shown in (B), (C), (D) and (E) are are means±SD. P-values were derived from two-tailed unpaired t-test.
# Cells were plated at 20˜30% density one day prior to siRNAs transfection.
# Cells were treated with ferroptosis inducer TBH or erastin or glutamate combined with other drugs or conditions. At indicated time points, cells were trypsinized and stained with trypan blue followed by counting with a hemocytometer using the cell number counter (Life technologies countess II). Living cells and dead cells were all counted, and cells stained blue were considered as dead cells.
# [2] = system: HTTQ94 Tet-on HT-22 cells; assay: Cell death assay, HTTQ94 Tet-on HT-22 cells under ROS stress (TBH); type: cell-based, mouse; conditions: for effect of inhibitor on HTTQ94-mediated cell death upon ROS stress: then TBH 10 μM 8 h, Ferr-1 2 μM, Lipro-1 2 μM, DFO 100 μM, zVAD 10 μM, 3 MA 2 mM, Nec1 10 μM, Zileuton 10 μM, MK886 10 μM
# Experimental: (A) Representative phase-contrast images of cell death from the HTTQ94 tet-on HT-22 cells. HTTQ94 Tet-on HT-22 cells were pre-incubated with doxycycline (0.5 μg/ml) for 4 h, and then treated with TBH (10 μM) for 8 h in the presence or absence of the ferroptosis inhibitors (ferrostatin-1, Ferr1, 2 μM; liproxstatin-1, Lipor1, 2 μM and DFO, 100 μM), apoptosis inhibitor (Z-VADFMK, zVAD, 10 μM), autophagy inhibitor (3-methylademine, 3 MA, 2 mM) or necroptosis inhibitor (necrostatin-1, Nec1, 10 μM). (B) Quantification of cell death, related to panel A. Three replicates for each group. […] Cell death were calculated from three replicates; Data shown in (B), (C), and (E) are means±SD. P-values were derived from two-tailed unpaired t-test. (***) P≤0.001, (**) P≤0.01, (*) P≤0.05, (n.s.) P >0.05.
# [3] = system: HT-22 HTTQ94 inducible cells; assay: TfR1 immunofluorescence staining of ferroptotic cells; type: cell-based, mouse; conditions: doxycycline 1 μg/ml O/N
# Experimental: FIGS. 13A-D. TfR1 staining is able to specifically recognize ferroptotic cells induced by HTTQ94 expression. (A) Limb clasping analysis in HD and HD/Alox5null mice (9-, 11- and 13-week-old). p<0.01, n=7. (B-D), TfR1 staining in HT-22 HTTQ94 inducible cells upon TBH treatment. HT-22 HTTQ94 inducible cells were treated 1 μg/ml doxycycline O/N to induce HTTQ94 expression, followed by treatment with 30 μM TBH for 6 h, and then cells were stained with TfR1 antibody. (B) Representative images of TfR1 staining. (C) Quantification of TfR1 staining. (D) Cell death assay, related to panel B. Data shown in (A) are means±SD. Data shown in (C) and (D) are means±SEM. P-values were derived from two-tailed unpaired t-test. (***) P<0.001, (**) P≤0.01, (*) P<0.05, (n.s.) P >0.05.
# For cell line: HT-22 HTTQ94 inducible cells were fixed with 2% paraformaldehyde at RT for 20 min, and then incubated with blocking buffer (10% donkey serum, 0.3% Triton X-100 in PBS), followed by incubation with TfR1 antibody (1: 250, Thermo Fisher Scientific, Cat #13-6800) for 1 h, and then incubation with Alexa 568 conjugated secondary antibody (1:250, Thermo Fisher Scientific, Cat #A11004) for additional 1 h.
# [4] = system: mHTT-mediated ferroptosis; assay: mHTT-mediated ferroptosis (summary statement); type: cell-based; conditions: general statement
# [5] = system: cellular models of Huntington's disease (HD); conditions: Skouta et al. 2014; cited from earlier work
# [6] = system: HTTQ94 Tet-on HT-22 cells; assay: Cell death assay, HTTQ94 Tet-on HT-22 cells treated with erastin; type: cell-based, mouse; conditions: doxycycline 0.5 μg/ml 4 h, then Erastin 1 μM 12 h; Ferr-1 2 μM, ROSI 10 μM, TRO 10 μM
# Experimental: (B) HTTQ94 Tet-on HT-22 cells were pre-incubated with doxycycline (0.5 μg/ml) for 4 h, and then treated with Erastin (1 μM) for 12 h with/without Ferr-1 (2 μM). […] (E) Cell death assay. Control, HTTQ94 and HTTQ19 fragment Tet-on H1299 cells pre-incubated with doxycycline (0.5 μg/ml) for 16 h were treated with Erastin (30 μM) for 48 h with/without Ferr-1 (2 μM). Cell death were calculated from three replicates; Data shown in (B) and (E) are the means±SD. P-values were derived from two-tailed unpaired t-test. (***) P≤0.001, (**) P≤0.01, (*) P≤0.05, (n.s.) P >0.05.
# (A) Cell death assay. HTTQ94 Tet-on HT-22 cells pre-incubated with doxycycline (0.5 μg/ml) for 4 h were treated with Erastin (1 μM) for 12 h in the presence or absence of ferrostatin-1 (Ferr-1, 2 μM) or ACSL4 inhibitors (rosiglitazone, ROSI, 10 μM; troglitazone, TRO, 10 μM). (B) Cell death assay. […] Cell death were calculated from three replicates. […]
# Cells were treated with ferroptosis inducer TBH or erastin or glutamate combined with other drugs or conditions. […] Living cells and dead cells were all counted, and cells stained blue were considered as dead cells. Quantification of cell death was further confirmed using ToxiLight Non-destructive Cytotoxicity BioAssay Kit (LT07-117; Lonza). Data were collected using GloMax® Explorer Multimode Microplate Reader (Promega).
compound,measurement,setting,value
N[C@@H](CCC(=O)O)C(=O)O [glutamate],cell death induced by inducer upon HTTQ94 expression,[1],high levels of cell death
"CC(C)(C)OO [TBH, tert-butyl hydroperoxide]",cell death induced by inducer alone,"[2]; TBH 10 μM 8 h, no HTTQ94 induction",failed to induce any cell death
same,cell death induced by inducer combined with HTTQ94 expression,"[2]; doxycycline 0.5 μg/ml 4 h, TBH 10 μM 8 h",high levels of cell death
same,levels of anti-TfR1 antibody staining cells with inducer upon HTTQ94 induction,[3]; TBH 30 μM 6 h,dramatically increased
"Clc1cccc(CN=C2Nc3ccccc3NC23CCNCC3)c1 [Lipro-1, liproxstatin-1]",effect of inhibitor on HTTQ94-mediated cell death upon ROS stress,[2]; doxycycline 0.5 μg/ml 4 h,specifically blocked
"CC(c1cc2ccccc2s1)N(O)C(N)=O (racemic) [Zileuton, (±)-1 (1-Benzo[b]thien-2-ylethyl)-1-hydroxyurea]",block of mHTT-mediated ferroptosis,[4],effectively blocked
same,effect of inhibitor on HTTQ94-mediated ferroptosis upon glutamate induction,[1],completely blocked
CCOC(=O)c1ccc(NC2CCCCC2)c(N)c1 [ferrostatin-1],rescue of cell death,[5],significantly rescued
same,effect of inhibitor on HTTQ94-mediated cell death upon ROS stress,[2]; doxycycline 0.5 μg/ml 4 h,specifically blocked
same,effect of inhibitor on HTTQ94-mediated cell death (ferroptosis) upon erastin,[6],completely inhibited
same,effect of inhibitor on levels of anti-TfR1 antibody staining,"[3]; then TBH 30 μM 6 h, with Ferr-1",abolished
same,effect of inhibitor on HTTQ94-mediated ferroptosis upon glutamate induction,[1],inhibited
CC(=O)N(O)CCCCCNC(=O)CCC(=O)N(O)CCCCCNC(=O)CCC(=O)N(O)CCCCCN [DFO],effect of inhibitor on HTTQ94-mediated cell death upon ROS stress,[2]; doxycycline 0.5 μg/ml 4 h,specifically blocked

# Source: US20240299347A1, “METHODS AND COMPOSITIONS TO TREAT HUNTINGTON'S DISEASE BY TARGETING ALOX5- MEDIATED FERROPTOSIS” (The Trustees of Columbia University in the City of New York, priority 2023, published 2024)
